According to patent publication US12018327B2, “Methods and compositions relating to epoxide hydrolase genes” (The Regents of the University of California, priority 2018, dated 2024):

Assays:
human DCs [1] = assay: IL-10 secretion from human DCs, cytometric bead array; format: cell-based
Description: IL-10 secretion was measured using a cytometric bead array (BD Biosciences, San Jose, CA). Human DCs were isolated from the peripheral blood mononuclear cells (PBMCs) of two healthy human donors as previously described and treated with increasing concentrations of 12,13 DiHOME (Cayman Chemical, Ann Arbor, MI) solubilized in 0.2% dimethylsulfoxide (DMSO). […] IL-10 concentrations were determined according to the manufacturer's instructions.

human DCs [2] = assay: Gene expression in human DCs by qPCR; format: cell-based; conditions: 130 μM, two days; relative to beta-actin
Description: Gene expression was examined in human DCs. DCs were isolated as described above and treated for two days with 130 μM 12,13 DiHOME. Cells were washed twice in PBS, and RNA was extracted using the RNAqueous™ Micro Kit (Ambion, Foster City, CA). The RT2 First Strand Kit (Qiagen, Germantown, MD) was used to synthesize cDNA, and expression of CD36, CD1a, FABP4, and HADH relative to beta-actin was measured using Power SYBR Green PCR Master Mix (ThermoFisher Scientific, Waltham, MA) and a QuantStudio 6 Real-Time PCR system (ThermoFisher Scientific, Waltham, MA).

CRA-challenged mice = assay: Cockroach antigen (CRA) airway sensitization and challenge model; format: in vivo; conditions: for frequency of lung resident alveolar macrophages (CD11c+CD11b+F4/80+Siglec-F+): compared to vehicle treated
Description: Six-week-old female C57B6 mice were obtained from Jackson Laboratories (Sacramento, CA). Mice were treated on days 1, 2, 3, 14, and 21 with 30 mg kg^−1 12,13 DiHOME solubilized in 10% DMSO or vehicle (10% DMSO) by peritoneal injection. Three hours after injection, mice were challenged intra-tracheally with either PBS or CRA (20,000 PNU mL^−1; Greer, Lenoir, NC). Twenty-four hours after the final challenge mice were anesthetized, injected retro-orbitally with 100 μL CD45-APC (1:10), allowed to recover from anesthesia, and subsequently sacrificed. Lungs and plasma were collected. Serum was isolated, and serum IgE levels were measured using a Mouse IgE ELISA Max kit (Biolegend, San Diego, CA).
Lungs were sent to the Mouse Pathology Core at UCSF for H&E staining of paraffin-embedded tissue sections. Two bronchioles and two vessels from each stained tissue section were scored on a 0-4 scale with 0, representing structures with no inflammatory infiltrates; 1, representing few inflammatory cells; 2, representing a ring 1 cell-layer wide; 3, representing a ring 2-4 cells wide; and 4, representing a ring of inflammatory cells more than 4 cells wide. Each structure was scored by two blinded-individuals, and scores were averaged for each animal. Cell counts were determined for each structure. In brief, the ImageJ freehand selection tool was used to trace the perimeter of each bronchiole and vessel. The area extending beyond the perimeter of the vessel was cleared, and the color threshold of the image was adjusted using the default method with the following parameters: hue=0-255, saturation=0-255, brightness=130-255, threshold color=white, background=dark, color space=HSB. The image was converted to an 8-bit grey scale, and the threshold was adjusted using the B&W defaults and a range of 0-150. Counts were outlined and summarized using the analyze particles window (size=0-infinity, circularity=0.0-1.00).
Lung cell subsets were assessed by flow cytometry. Lung tissue was manually dissected, digested with 5 mg per sample collagenase (Sigma-Aldrich, St. Louis, MO), and passed through a […] filter to generate single cell suspensions. […] Gating strategy can be found in FIG. 5C. Regulatory T cells were identified as CD3+CD4+CD25+FoxP3+ cells. The human T cell gating strategy was also applied to mouse lungs. A representative flow plot can be found in FIG. 5D.
Lung tissue was preserved in RNAlater (Ambion, Foster City, CA). Preserved lung tissue was homogenized in Lysing Matrix E Tubes using a FastPrep 24 Homogenizer (MP Biomedicals, Santa Ana, CA) and extracted using an RNAeasy Mini Kit (Qiagen, Germantown, MD). qPCR was performed on lung tissue, as described above, to evaluate expression of IL1α, IL1β, and TNF relative to GAPDH.

[3] = Quantification of 12,13 DiHOME in lungs and plasma by LC-MS after peritoneal injection; format: in vivo, mice; conditions: 30 mg kg^−1 peritoneal, vs vehicle
Description: For quantification of 12,13 DiHOME in the lungs and plasma, six-week-old female C57B6 mice were purchased from Jackson Laboratories (Sacramento, CA) and treated with 30 mg kg^−1 12,13 DiHOME solubilized in 10% DMSO or vehicle (10% DMSO) by peritoneal injection. Three hours after a single injection mice were sacrificed, and lung tissue and plasma were collected and frozen immediately in liquid nitrogen. 12,13 DiHOME was extracted from tissue and plasma using an established solid phase extraction protocol. In brief, flash frozen tissue was massed and added to a Lysing Matrix E Tube (MP Biomedicals, Santa Ana, CA) containing 1 mL of methanol, 10 μL 0.2 mg mL^−1 BHT/EDTA, and 1.25 ng 12,13 DiHOME-D4 (Cayman Chemical, Ann Arbor, MI) then homogenized as described above. Tissue samples were spun for 10 minutes at 2125×g, and supernatant was transferred to a falcon tube containing 19 mL deionized water to generate a 5% methanol solution. Plasma samples were thawed on ice, and 10 μL 0.2 mg mL^−1 BHT/EDTA and 1.25 ng 12,13 DiHOME-D4 were added to 250 μL of thawed plasma. All samples were extracted using a Waters Oasis HLB Cartridges (60 mg of sorbent, […] particle size; Waters, Milford, MA) as previously described. […]

[4] = 30 mg kg^−1 peritoneal, CRA-challenged, vs vehicle treated PBS or CRA challenged
[5] = CRA challenged, vs vehicle treated PBS or CRA challenged
[6] = CRA-challenged, vs vehicle treated PBS or CRA challenged
[7] = H&E lung sections, 0-4 scale, vs vehicle treated PBS or CRA challenged

CCCCCC(O)C(O)C/C=C\CCCCCCCC(=O)O (stereo not shown) [12,13 DiHOME]
significant increases: expression of CD36 (RNA) (human DCs [2]) | expression of FABP4 (RNA) (human DCs [2]) | expression of HADH (RNA) (human DCs [2])
significant decreases: IL-10 secretion 24 hours after treatment (human DCs [1]; 130 μM, 24 hr) | IL-10 secretion 48 hours after treatment (human DCs [1]; 130 μM, 48 hr)
decreased: lung Treg frequency (CRA-challenged mice; 30 mg kg^−1 peritoneal, CRA-challenged, vs vehicle-treated CRA-challenged) | frequency of resident lung cells (CRA-challenged mice; [6]) | frequency of lung resident alveolar macrophages (CD11c+CD11b+F4/80+Siglec-F+) (CRA-challenged mice; CRA challenged animals)
did not increase: frequency of live resident cells in the lungs (CRA-challenged mice; [6])
significantly increased: frequency of lung resident monocytes (F4-80+Ly6C+Ly6G-CD11b+) (CRA-challenged mice; [6]) | frequency of lung resident neutrophils (Ly6G+CD11b+) (CRA-challenged mice; [6]) | concentration of 12,13 DiHOME in the lungs ([3]; 3 hours post-delivery) | concentration of 12,13 DiHOME in the plasma ([3]; three hours after injection)
dose-dependent decrease: IL-10 secretion from human DCs (human DCs [1]; 75, 130, 200 μM, supernatant after 24 hours)
significant decrease: expression of CD1a (RNA) (human DCs [2])
increased: expression of IL1β in lung (CRA-challenged mice; [4]) | frequency of lung resident T cells (CD3+) (CRA-challenged mice; [4]) | number of infiltrating cells surrounding the bronchioles (CRA-challenged mice; [4]) | number of infiltrating cells surrounding the veins (CRA-challenged mice; [4]) | serum IgE (CRA-challenged mice; 30 mg kg^−1 peritoneal, vs CRA-challenged and PBS-challenged animals) | expression of IL1α in lung (CRA-challenged mice; [5]) | expression of TNF in lung (CRA-challenged mice; [5]) | peribronchial inflammation score (CRA-challenged mice; [7]) | perivascular inflammation score (CRA-challenged mice; [7]) | frequency of lung resident alveolar macrophages (CD11c+CD11b+F4/80+Siglec-F+) (CRA-challenged mice; PBS challenged animals)
